# Experimental data taken from the supplement of paper PMC10307832.
# Legend:
# Assay in all cases: relative viability (nuclei count vs DMSO), 5 days (fraction); higher = more cells survive
# Ispinesib + Crizotinib = compound: Cc1ccc(C(=O)N(CCCN)[C@@H](c2nc3cc(Cl)ccc3c(=O)n2Cc2ccccc2)C(C)C)cc1 [Ispinesib] + C[C@@H](Oc1cc(-c2cnn(C3CCNCC3)c2)cnc1N)c1c(Cl)ccc(F)c1Cl [Crizotinib] (partner 1 µM)
# Procedure, shortened: (§1)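 Lung cancer cell lines in 1536-well plates were dosed by pin tool the day after seeding, either with one drug alone or with a fixed anchor-drug dose plus five library-drug doses (not always all listed) in √10 steps. After 5 days, cells were fixed and their nuclei stained in one step (final 0.05% Triton X-100, 1% formaldehyde, 1 ug/ml Hoechst), then counted on 4× images. Relative viability is the nuclei count in treated wells divided by that in vehicle wells. Values are medians of duplicate plates.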
# Linsitinib + Pemetrexed = compound: C[C@]1(O)C[C@@H](c2nc(-c3ccc4ccc(-c5ccccc5)nc4c3)c3c(N)nccn32)C1 [Linsitinib] + Nc1nc2[nH]cc(CCc3ccc(C(=O)N[C@@H](CCC(=O)O)C(=O)O)cc3)c2c(=O)[nH]1 [Pemetrexed] (partner 0.2 µM)
# Procedure, shortened: as §1
# Ispinesib + Luminespib = compound: Cc1ccc(C(=O)N(CCCN)[C@@H](c2nc3cc(Cl)ccc3c(=O)n2Cc2ccccc2)C(C)C)cc1 [Ispinesib] + CCNC(=O)c1noc(-c2cc(C(C)C)c(O)cc2O)c1-c1ccc(CN2CCOCC2)cc1 [Luminespib] (partner 0.01 µM)
# Procedure, shortened: as §1
# Linsitinib + Dasatinib = compound: C[C@]1(O)C[C@@H](c2nc(-c3ccc4ccc(-c5ccccc5)nc4c3)c3c(N)nccn32)C1 [Linsitinib] + Cc1nc(Nc2ncc(C(=O)Nc3c(C)cccc3Cl)s2)cc(N2CCN(CCO)CC2)n1 [Dasatinib] (partner 0.075 µM)
# Procedure, shortened: as §1
Cell Line,relative viability (Ispinesib + Crizotinib; first compound 0.001 µM),relative viability (Ispinesib + Crizotinib; first compound 0.003162 µM),relative viability (Ispinesib + Crizotinib; first compound 0.01 µM),relative viability (Ispinesib + Crizotinib; first compound 0.03162 µM),relative viability (Ispinesib + Crizotinib; first compound 0.1 µM),relative viability (Linsitinib + Pemetrexed; first compound 0.01 µM),relative viability (Linsitinib + Pemetrexed; first compound 0.03162 µM),relative viability (Linsitinib + Pemetrexed; first compound 0.1 µM),relative viability (Linsitinib + Pemetrexed; first compound 1 µM),relative viability (Ispinesib + Luminespib; first compound 0.001 µM),relative viability (Ispinesib + Luminespib; first compound 0.003162 µM),relative viability (Ispinesib + Luminespib; first compound 0.01 µM),relative viability (Ispinesib + Luminespib; first compound 0.03162 µM),relative viability (Ispinesib + Luminespib; first compound 0.1 µM),relative viability (Linsitinib + Dasatinib; first compound 0.01 µM),relative viability (Linsitinib + Dasatinib; first compound 0.03162 µM),relative viability (Linsitinib + Dasatinib; first compound 0.1 µM),relative viability (Linsitinib + Dasatinib; first compound 0.3162 µM),relative viability (Linsitinib + Dasatinib; first compound 1 µM),relative viability (Linsitinib + Pemetrexed; first compound 0.3162 µM)
NCI-H650,0.526,0.669,0.826,0.595,0.404,0.878,1.05,0.923,0.739,0.739,0.836,0.808,0.621,0.783,0.45,0.432,0.47,0.374,0.325,
IA-LM,0.897,0.912,0.7,0.131,0.199,,,,,,,,,,,,,,,
A-427,0.886,1.23,0.968,0.887,0.369,0.951,1.03,0.986,0.866,1,1.11,1.33,0.352,0.389,0.712,0.78,0.723,,0.631,
NCI-H2347,0.714,0.833,0.717,0.544,0.402,0.418,0.445,0.409,0.416,0.375,0.503,0.624,0.359,0.469,0.3,0.339,0.317,,0.3,0.399
NCI-H1793,,,,,,0.834,0.819,0.842,0.63,0.198,0.169,0.749,0.144,0.162,0.434,0.367,0.382,0.332,0.392,0.584
NCI-H1651,0.855,0.936,0.99,0.959,0.735,0.345,0.489,0.56,0.596,0.989,0.88,0.859,1.23,0.404,0.343,0.386,0.416,0.251,0.301,0.608
HCC-78,0.348,0.341,0.438,,0.272,,0.897,0.913,0.925,,,,,,0.365,0.437,0.238,0.554,0.265,0.882
NCI-H23,0.475,0.46,0.595,0.499,0.283,0.78,0.474,0.786,0.419,0.205,0.202,0.199,0.195,0.197,0.837,0.807,0.571,0.415,0.366,0.394
LOU-NH91,0.764,0.744,0.706,0.671,0.536,0.405,0.345,0.394,0.392,0.332,0.311,0.394,0.25,0.297,0.561,0.612,0.545,0.645,0.456,0.357
LXF-289,0.798,0.815,0.888,0.759,0.397,0.879,0.88,0.927,0.861,0.622,0.794,0.743,0.556,0.617,0.244,0.203,0.182,,0.191,0.777
NCI-H460,1.11,1.07,,0.38,0.083,0.0547,0.0538,0.065,0.0715,0.022,0.0333,0.0413,0.0267,0.0268,0.578,0.393,0.441,0.34,0.146,
NCI-H1792,1.26,1.16,0.863,0.736,0.32,1.05,0.695,0.891,0.321,0.821,0.435,0.705,0.443,0.471,,0.927,0.771,0.529,0.215,0.51
EMC-BAC-2,0.914,0.847,0.756,0.751,0.481,0.397,0.394,0.447,0.432,0.797,1.32,1.36,1.13,0.6,0.318,0.323,0.289,0.445,0.197,0.448
CAL-12T,0.688,0.731,0.394,0.229,0.282,1.25,0.946,1.23,1.13,0.318,0.394,0.688,0.379,0.236,0.362,0.359,0.485,0.178,0.273,1.14
ChaGo-K-1,1.26,1.3,1.26,0.841,0.894,0.263,0.243,0.271,0.261,0.727,0.712,0.82,0.639,0.492,0.649,0.5,0.588,0.415,0.588,
COR-L 105,0.721,0.759,0.47,0.263,0.411,0.963,1.1,1.23,0.984,0.737,0.666,0.808,0.349,0.439,0.321,0.374,0.294,0.289,0.252,0.771
NCI-H1944,1.2,1.16,1.18,0.697,0.573,0.597,0.574,0.661,0.492,0.75,0.781,0.968,0.475,0.617,0.224,0.237,0.196,0.236,0.162,0.426
NCI-H2009,1.04,1.01,0.999,0.589,0.288,1.15,0.944,1.09,0.942,1.12,1.13,1.19,0.769,0.251,0.285,0.262,0.274,,0.2,0.946
NCI-H522,,,,,,0.831,0.839,1.01,0.839,1.02,1.1,1.17,0.922,1.11,0.829,1.03,0.902,,0.86,0.652
NCI-H441,0.834,0.697,0.485,0.217,0.222,0.246,0.284,0.259,0.291,0.346,0.404,0.448,0.389,0.292,0.484,0.55,0.614,0.349,0.303,0.234
NCI-H1623,,,,,,,,,,0.638,0.487,0.578,0.526,0.455,0.561,0.527,0.45,,0.415,

Cell Line,relative viability (Ispinesib + Crizotinib; first compound 0.001 µM),relative viability (Ispinesib + Crizotinib; first compound 0.003162 µM),relative viability (Ispinesib + Crizotinib; first compound 0.01 µM),relative viability (Ispinesib + Crizotinib; first compound 0.03162 µM),relative viability (Ispinesib + Crizotinib; first compound 0.1 µM),relative viability (Linsitinib + Pemetrexed; first compound 0.01 µM),relative viability (Linsitinib + Pemetrexed; first compound 0.03162 µM),relative viability (Linsitinib + Pemetrexed; first compound 0.1 µM),relative viability (Linsitinib + Pemetrexed; first compound 1 µM),relative viability (Ispinesib + Luminespib; first compound 0.001 µM),relative viability (Ispinesib + Luminespib; first compound 0.003162 µM),relative viability (Ispinesib + Luminespib; first compound 0.01 µM),relative viability (Ispinesib + Luminespib; first compound 0.03162 µM),relative viability (Ispinesib + Luminespib; first compound 0.1 µM),relative viability (Linsitinib + Dasatinib; first compound 0.01 µM),relative viability (Linsitinib + Dasatinib; first compound 0.03162 µM),relative viability (Linsitinib + Dasatinib; first compound 0.1 µM),relative viability (Linsitinib + Dasatinib; first compound 0.3162 µM),relative viability (Linsitinib + Dasatinib; first compound 1 µM),relative viability (Linsitinib + Pemetrexed; first compound 0.3162 µM)
NCI-H1437,0.993,0.971,1.11,0.902,0.195,0.317,0.247,0.307,0.275,1.16,1.22,1.26,1.22,0.994,0.352,0.308,0.463,0.505,0.463,0.288
PC-14,0.967,0.971,1.07,0.873,0.232,0.137,0.0865,0.16,0.148,0.168,0.13,0.131,0.131,0.125,0.285,0.274,0.282,0.202,0.19,0.121
LCLC-103H,1.08,1.2,1.08,0.999,0.929,0.441,0.459,0.46,0.505,0.95,1.08,1.08,0.752,0.785,0.444,0.517,0.474,0.428,0.368,0.341
COR-L23,0.68,0.729,0.882,0.311,0.248,0.202,0.184,0.189,0.18,0.805,0.815,0.824,0.356,0.215,0.424,0.456,0.416,0.375,0.346,0.184
H3255,1.09,0.821,0.92,0.58,0.327,0.457,0.566,0.533,0.521,0.898,1.1,0.859,0.557,0.29,0.347,0.369,0.347,0.334,0.344,0.557
NCI-H2126,1.03,1.05,1.09,1.07,0.923,0.707,0.67,0.779,0.598,0.927,1.02,1.03,0.844,0.428,0.596,0.649,0.527,0.273,0.27,0.511
HCC-366,0.6,0.563,1.22,0.848,0.0887,0.138,0.0729,0.156,0.127,,,,,,0.644,0.606,0.488,0.543,0.174,0.119
LU99A,0.503,0.589,0.569,0.421,0.231,0.161,0.144,0.193,0.198,0.242,0.333,0.247,0.199,0.218,0.553,0.52,0.539,0.334,0.289,
NCI-H727,,0.943,1.02,0.632,0.408,,,,,0.244,0.284,0.349,0.0037,0.308,0.421,0.274,0.372,0.252,0.252,
HCC-44,0.796,0.905,0.951,0.776,0.121,0.624,0.511,0.618,0.6,1.25,1.07,1.02,1.1,0.555,,,,,,0.555
ABC-1,1.1,1.15,0.908,0.248,0.334,,,,,,0.598,0.613,0.369,0.469,0.574,0.469,0.504,0.541,0.448,
EBC-1,0.189,0.194,0.194,0.167,0.152,,,,,,,,,,,,,,,
NCI-H1703,0.811,0.454,0.185,0.0885,0.285,,,,,,,,,,,,,,,
NCI-H1395,,,,,,0.77,,0.979,0.835,0.793,0.769,0.817,0.655,0.447,0.425,0.372,0.399,0.441,0.43,0.673
NCI-H1299,1.01,0.977,1.02,0.805,0.469,,,,,,,,,,,,,,,
A549,0.88,0.903,0.849,0.0553,0.181,,,,,,,,,,,,,,,
NCI-H2342,,,,,,0.731,0.746,0.732,0.704,0.746,0.768,0.698,0.703,0.592,0.307,0.306,0.306,0.353,0.298,0.82
SW 900,,,,,,0.484,0.44,0.478,0.405,0.206,0.171,0.164,0.183,0.19,0.537,0.739,0.85,0.319,0.322,0.438
NCI-H1648,,,,,,0.95,0.553,0.658,0.826,,,,,,,,,,,0.592
Calu-6,0.992,0.618,0.527,0.169,0.265,,,,,,,,,,,,,,,
